Experimental data from patent US10034886B2, “GLP-1 receptor modulators” (Celgene International II SÀRL, priority 2014, dated 2018).

molecular target: T1, GLP-1R (Homo sapiens, UniProt P43220); assay: EC20 GLP-1(9-36) PAM cAMP assay: dose response of compound in the presence of fixed concentration of GLP-1(9-36); format: cell-based; details: GLP-1R CRE-bla CHO-K1 cells, compound dose response with fixed concentration of GLP-1(9-36), read-out: EC20 GLP-1(9-36) PAM EC50
T1 construct: host or cells: GLP-1R CRE-bla CHO-K1 cells
T1 sequence (P43220 24-463): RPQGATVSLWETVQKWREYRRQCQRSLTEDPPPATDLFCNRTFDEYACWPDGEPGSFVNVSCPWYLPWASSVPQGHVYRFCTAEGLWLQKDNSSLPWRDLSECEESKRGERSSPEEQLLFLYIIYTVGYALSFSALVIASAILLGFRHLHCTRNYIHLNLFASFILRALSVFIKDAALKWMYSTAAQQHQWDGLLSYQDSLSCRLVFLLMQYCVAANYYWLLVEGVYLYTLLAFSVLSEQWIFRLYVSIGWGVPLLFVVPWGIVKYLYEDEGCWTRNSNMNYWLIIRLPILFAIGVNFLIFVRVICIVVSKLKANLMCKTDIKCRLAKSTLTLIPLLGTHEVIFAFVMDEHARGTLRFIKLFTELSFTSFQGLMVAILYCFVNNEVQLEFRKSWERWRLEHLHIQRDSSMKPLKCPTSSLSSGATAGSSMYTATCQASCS
T1 sequence (P01275 100-127 partner limits assumed): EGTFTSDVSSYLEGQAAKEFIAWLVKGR
Procedure, shortened: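 Positive allosteric modulation read as cAMP accumulation: compound titrations (12 points) combined with an EC20 level of GLP-1(9-36) on CHO-K1 GLP-1R CRE-bla cells, IBMX present, 30 min, 37 °C, pH 7.4 buffer. Luminescence converted to cAMP via standards; non-linear fit gave EC50 and Emax.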

CCC[C@H]1CC[C@H](C2CCN(c3cnc(-c4ccc(C[C@H](NC(=O)c5ccc(C(C)(C)C)s5)C(=O)N[C@@H](CO)C(=O)O)cc4)nc3)CC2)CC1 [Compound 1467] and CCC[C@H]1CC[C@H](C2CCN(c3cnc(-c4ccc(C[C@H](NC(=O)c5ccc(C(C)(C)C)s5)C(=O)NS(C)(=O)=O)cc4)nc3)CC2)CC1 [Compound 1438, 5-(tert-butyl)-N—((S)-1-(methylsulfonamido)-1-oxo-3-(4-(5-(4-((1s,4r)-4-propylcyclohexyl)piperidin-1-yl)pyrimidin-2-yl)phenyl)propan-2-yl)thiophene-2-carboxamide] cannot be ordered by EC50: under 800 nM for the first, under 800 nM for the second.

First: CCC[C@H]1CC[C@H](C2CCN(c3cnc(-c4ccc(C[C@H](NC(=O)c5ccc(C6(C)CC6)cc5)C(=O)N5CC(C(=O)O)C5)cc4)nc3)CC2)CC1 [Compound 1519]
Second: CCC[C@H]1CC[C@H](C2CCN(c3cnc(-c4ccc(C[C@H](NC(=O)c5ccc(C)s5)C(=O)N5CC(C(=O)O)C5)cc4)nc3)CC2)CC1 [Compound 1530]
The EC50 of the first is lower: under 800 nM for the first, 800 to 2500 nM for the second. The first is the more potent here.

Compared with CCCCC[C@H]1CC[C@H](c2ccc(-c3cnc(-c4ccc(C[C@H](NC(=O)c5ccc(C(C)(C)C)s5)C(=O)N[C@H](C)C(=O)O)cc4)nc3)cc2)CC1 [Compound 1310], CC(C)Oc1ccc(-c2ccc(-c3cnc(-c4ccc(C[C@H](NC(=O)c5ccc(C(C)(C)C)s5)C(=O)N[C@H](C)C(=O)O)cc4)nc3)cc2)cc1 [Compound 1295] is lower in EC50: 2500 to 5000 nM for the first, 800 to 2500 nM for the second. The second is the more potent here.

CC(C)(C)c1ccc(C(=O)N[C@@H](Cc2ccc(-c3ncc(N4CCC(c5ccc(C(F)(F)F)cc5)CC4)cn3)cc2)C(=O)N2CC(C(=O)O)C2)s1 [Compound 1481] and CCC[C@H]1CC[C@H](C2CCN(c3cnc(-c4ccc(C[C@H](NC(=O)c5ccc(C(C)(C)C)s5)C(=O)N5CC(OC)(C(=O)O)C5)cc4)nc3)CC2)CC1 [Compound 1452] cannot be ordered by EC50: under 800 nM for the first, under 800 nM for the second.

First: CC(C)(C)c1ccc(C(=O)N[C@@H](Cc2ccc(-c3ncc(-c4ccc(-c5ccccc5)c(F)c4)cn3)cc2)C(=O)O)s1 [Compound 1351]
Second: CCC[C@H]1CC[C@H](C2CCN(c3cnc(-c4ccc(CC(NC(=O)c5ccc(C(C)(C)C)s5)C(=O)NS(=O)(=O)CCN(C)C)cc4)nc3)CC2)CC1 (stereo partly shown) [Compound 1547]
The EC50 of the first is higher: 2500 to 5000 nM for the first, under 800 nM for the second.

same assay, conditions: dose response of compound in presence of fixed concentration of GLP-1(9-36), GLP-1R CRE-bla CHO-K1 cells, read-out: EC20 GLP-1(9-36) PAM EC50

CCCCCCCOc1ccc(-c2cnc(-c3ccc(C[C@H](NC(=O)c4ccc(C(C)(C)C)s4)C(=O)N[C@H]4C[C@H](C(=O)O)C4)cc3)nc2)cc1 [Compound 875] and CCCCCCCOc1ccc(-c2cnc(-c3ccc(C[C@H](NC(=O)c4ccc(C(C)(C)C)s4)C(=O)NC(C)(C)C(=O)O)cc3)nc2)cc1 [Compound 406] fall in the same range of EC50: 800 to 2500 nM for the first, 800 to 2500 nM for the second.

Compared with Cc1ccc(-c2cccc(-c3noc(-c4cnc(-c5ccc(C[C@H](NC(=O)c6ccc(C(C)(C)C)cc6)C(=O)NCCC(=O)O)cc5)nc4)n3)c2)cc1 [Compound 748], CCCCCCCOc1ccc(-c2cnc(-c3ccc(C[C@H](NC(=O)c4ccc(C(C)(C)C)cc4)C(=O)N4CCC4C(=O)O)cc3)nc2)cc1 (stereo partly shown) [Compound 565] is lower in EC50: 2500 to 5000 nM for the first, 800 to 2500 nM for the second. The second is the more potent here.

Compared with CCCCCCCOc1ccc(-c2cnc(-c3ccc(C[C@H](NC(=O)c4ccc(C(C)(C)C)s4)C(=O)NC(C(=O)O)C(O)c4cc(C)no4)cc3)nc2)cc1 (stereo partly shown) [Compound 912], CCCCCCCOc1ccc(-c2cnc(-c3ccc(C[C@H](NC(=O)c4ccc(C(C)(C)C)s4)C(=O)N4CCCC4CC(=O)O)cc3)nc2)cc1 (stereo partly shown) [Compound 621] is higher in EC50: under 800 nM for the first, 2500 to 5000 nM for the second. The first is the more potent here.

First: CCCCCCCOc1ccc(-c2cnc(-c3ccc(C[C@H](NC(=O)c4ccc(C(C)(C)CC)cc4)C(=O)N4CC(C(=O)O)C4)cc3)nc2)cc1 [Compound 1121]
Second: CCCCCCOc1ccc(-c2ccc(-c3ccc(C[C@H](NC(=O)c4ccc(C(C)(C)C)cc4)C(=O)O)cc3)cn2)cc1 [Compound 270]
The EC50 of the first is lower: 800 to 2500 nM for the first, 2500 to 5000 nM for the second.

CCCCCCCOc1ccc(-c2cnc(-c3ccc(C[C@H](NC(=O)c4ccc(C(C)(C)C)s4)C(=O)NCC4CCNCC4)cc3)nc2)cc1 [Compound 463] was tested, and the EC50 was 5000 to 10000 nM.
